Our source for the inhibition and IC50 values is ChEMBL document CHEMBL5143559, “Discovery of highly potent SARS-CoV-2 Mpro inhibitors based on benzoisothiazolone scaffold” (Bioorg Med Chem Lett, 2022).

Structures are written as SMILES. Calls of active or inactive are those of the source. No cut-off for these calls is given here.

Assay [1] deals with Replicase polyprotein 1ab (Severe acute respiratory syndrome coronavirus 2) (UniProt P0DTD1). Briefly: Inhibition of SARS-CoV-2 main protease using Mca-AVLQSGFRK(Dnp)K as substrate at 40 uM preincubated with enzyme for 10 mins followed by substrate addition and measured every 30 secs for 10 mins by fluorescence based analysis. Particulars: time 20.0 min.
Assay [2] concerns the target T1, Replicase polyprotein 1ab (Severe acute respiratory syndrome coronavirus 2, UniProt P0DTD1). The experiment in a line: Inhibition of SARS-CoV-2 main protease using Mca-AVLQSGFRK(Dnp)K as substrate preincubated with enzyme for 10 mins followed by substrate addition and measured every 30 secs for 10 mins by fluorescence based analysis.
For assay [3], the target named is T1, Replicase polyprotein 1ab. The experiment in a line: Inhibition of SARS-CoV-2 RdRp.
The target in assay [4] is Replicase polyprotein 1ab (Severe acute respiratory syndrome coronavirus 2) (UniProt P0DTD1). The experiment in a line: Irreversible inhibition of SARS-CoV-2 main protease by fast dilution experiment based analysis.

One may read the inhibition as the drop in the measured response relative to a control, in per cent. The IC50 is the concentration at which inhibition is half-maximal. Read a high IC50 as weaker potency in that assay.

As for `O=C(Cn1sc2ccc(F)cc2c1=O)Nc1ccccc1`, in assay [1], the inhibition was 99.7%. The compound further came in with a 50% inhibitory concentration (IC50) in assay [2] of 287 nM.
On the same counts, the results for `O=C(Cn1sc2cc(F)ccc2c1=O)Nc1ccccc1C(F)(F)F` are 105% and 335 nM.
For the compound `O=C(Cn1sc2cc(F)ccc2c1=O)NC1CCCCC1`, the inhibition in assay [1] was 97.7%. The half-inhibitory concentration (IC50) in assay [2] was 160 nM; in assay [3], 7.9 µM.
Turning to `COc1ccccc1NC(=O)Cn1sc2cc(F)ccc2c1=O`, the inhibition in assay [1] is 99.2%. The compound further yielded an IC50 in assay [2] of 180 nM.
On the same counts, the results for `COc1cccc2sn(CC(=O)Nc3ccccc3)c(=O)c12` are 99.6% and 334 nM.
For `O=C(Cn1sc2cc(F)ccc2c1=O)Nc1cccc(C(F)(F)F)c1`, in that order: 98.9% and 250 nM.
`O=C(Cn1sc2cc(F)ccc2c1=O)Nc1cc(Cl)cc(Cl)c1`: the inhibition in assay [1] amounted to 108%. In addition, the half-maximal inhibitory concentration (IC50) in assay [2] amounted to 190 nM.
Consider `O=C(Cn1sc2cc(F)ccc2c1=O)NCCc1ccccc1`, for which the inhibition in assay [1] came out at 100%. Besides, the IC50 in assay [2] came out at 388 nM.
For `Nc1cccc2sn(CC(=O)Nc3ccccc3)c(=O)c12`, in that order: 99.4% and 1770 nM.
For `COc1ccc2c(=O)n(CC(=O)Nc3ccccc3)sc2c1`, in that order: 99.7% and 287 nM.
On the same counts, the results for `CCNC(=O)Cn1sc2cc(F)ccc2c1=O` are 102% and 380 nM.
For the compound `O=C(Cn1c(=O)c2ccc(F)cc2[s+]1[O-])Nc1ccccc1` (stereo unspecified), the inhibition in assay [1] amounted to 23.5%.
`Nc1cccc2c(=O)n(CC(=O)Nc3ccccc3)sc12`: the inhibition in assay [1] came out at 58.8%. In assay [2], this compound registered a half-maximal inhibitory concentration (IC50) of 11000 nM.
For the compound `O=C(Cn1sc2cc(F)ccc2c1=O)Nc1ccccc1`, in assay [1], the inhibition came out at 102%. Moreover, the results for the concentration for half-maximal inhibition (IC50) in assay [2] and in assay [3] were 190 nM and 6.4 µM, respectively.
For `O=C(Cn1oc2cc(F)ccc2c1=O)Nc1ccccc1`, the inhibition in assay [1] is 7%.
Take `O=C(Cn1sc2ccccc2c1=O)Nc1ccccc1`: the inhibition in assay [1] worked out at 99.7%. The IC50 in assay [2] stood at 165 nM.
As for `COc1ccc(NC(=O)Cn2sc3cc(F)ccc3c2=O)cc1`, the inhibition in assay [1] was 99.3%. This compound also displayed a half-maximal inhibitory concentration (IC50) in assay [2] of 300 nM.
On the same counts, the results for `Nc1ccc2sn(CC(=O)Nc3ccccc3)c(=O)c2c1` are 99.8% and 416 nM.
As for `O=C(Cn1sc2cc(F)ccc2c1=O)Nc1cccc(Cl)c1`, the inhibition in assay [1] was found to be 95.5%. Moreover, the half-maximal inhibitory concentration (IC50) in assay [2] was found to be 140 nM.
`CC(C)(C)OC(=O)Cn1sc2cc(F)ccc2c1=O`: the inhibition in assay [1] stood at 104%. The compound also yielded an IC50 in assay [2] of 220 nM.
On the same counts, the results for `CC(C)(C)c1ccc(NC(=O)Cn2sc3cc(F)ccc3c2=O)cc1` are 99.9% and 310 nM.
As to `COc1cccc2c(=O)n(CC(=O)Nc3ccccc3)sc12`, in assay [1], the inhibition is -6.8%.
Take `O=c1c2ccc(F)cc2sn1CCCc1ccccc1`: in assay [1], the inhibition was determined as 102%. In assay [2], this compound yielded an IC50 of 540 nM.
For `O=C(Cn1sc2ccc(C(F)(F)F)cc2c1=O)Nc1ccccc1`, in that order: 99.7% and 393 nM.
For `O=C(Cn1sc2cc(F)ccc2c1=O)NC1CCCC1`, in that order: 95.5% and 400 nM.
On the same counts, the results for `O=C(Cn1sc2cc(F)ccc2c1=O)Nc1ccc(Cl)cc1` are 95.7% and 150 nM.
In the case of `O=c1[nH]sc2cc(F)ccc12`, the inhibition in assay [1] was determined as 106%. For the same compound, in assay [2], the concentration for half-maximal inhibition (IC50) was 2290 nM.
For `COc1cccc(NC(=O)Cn2sc3cc(F)ccc3c2=O)c1`, in that order: 101% and 150 nM.
As for `COc1cc(NC(=O)Cn2sc3cc(F)ccc3c2=O)cc(OC)c1`, the inhibition in assay [1] was 96.7%. Also, half-maximal inhibition in assay [2] (IC50) required 120 nM.
For `O=C(Cn1sc2cc(F)ccc2c1=O)NCc1ccccc1`, in that order: 104% and 230 nM.
Consider `O=C(Cn1sc2c(C(F)(F)F)cccc2c1=O)Nc1ccccc1`, for which the inhibition in assay [1] is -7.6%.
For the compound `O=C(Nc1ccccc1)n1sc2cc(F)ccc2c1=O`, the inhibition in assay [1] was determined as 102%. In addition, the IC50 in assay [2] is 680 nM; in assay [3] it was 15.3 µM.
Take `O=C(Cn1sc2cc(F)ccc2c1=O)Nc1ccccc1Cl`: the inhibition in assay [1] is 94%. The compound further displayed a 50% inhibitory concentration (IC50) in assay [2] of 190 nM.
Turning to `COc1ccc2sn(CC(=O)Nc3ccccc3)c(=O)c2c1`, in assay [1], the inhibition stood at 99.7%. In assay [2], this compound registered an IC50 of 153 nM.
For the compound `O=C(Cn1sc2cc(F)ccc2c1=O)Nc1ccc(C(F)(F)F)cc1`, the inhibition in assay [1] was 100%. In assay [2], this compound came in with an IC50 of 210 nM.
Turning to `O=C(Cn1sc2cccc(F)c2c1=O)Nc1ccccc1`, in assay [1], the inhibition was 99.5%. The inhibition entry in assay [4] is “Active”. This compound also displayed an IC50 in assay [2] of 117 nM.
On to `O=C(CN1C(=O)c2ccc(F)cc2S1(=O)=O)Nc1ccccc1`, for which, in assay [1], the inhibition stood at 18.3%.
In the case of `CC(=O)NCn1sc2cc(F)ccc2c1=O`, the inhibition in assay [1] came to 102%. For the same compound, in assay [2], the IC50 came to 253 nM.
With `O=C(Cn1[nH]c2cc(F)ccc2c1=O)Nc1ccccc1`, in assay [1], the inhibition came out at 26.3%.
Regarding `O=C(Cn1sc2c(F)cccc2c1=O)Nc1ccccc1`, the inhibition in assay [1] was 99.5%. In assay [2], this compound displayed an IC50 of 328 nM.
On the same counts, the results for `Nc1ccc2c(=O)n(CC(=O)Nc3ccccc3)sc2c1` are 99.7% and 443 nM.
On the same counts, the results for `O=C(Cn1sc2cccc(C(F)(F)F)c2c1=O)Nc1ccccc1` are 99.7% and 224 nM.
On the same counts, the results for `O=C(O)Cn1sc2cc(F)ccc2c1=O` are 98.4% and 1570 nM.
`O=C(Cn1sc2cc(C(F)(F)F)ccc2c1=O)Nc1ccccc1`: in assay [1], the inhibition is 100%. This compound also gave an IC50 in assay [2] of 524 nM.
